{"source": "patent US4156009A", "about": "“Diazepine derivatives” (Hexachimie, priority 1977, dated 1979)", "key": {"Shay ulcers": {"tested_on": "Shay ulcers", "experiment": "Activity on Shay ulcers (pylorus ligation)", "type": "in vivo, rat (male, OFA strain)", "details": "2 hours after binding; for Pepsin / pH / Volume / Acidity free / Acidity total: gastric liquid; for Acidity free / Acidity total: potentiometry; for Ulcers: number in the rumen; for Acidity free ds the secretion / Acidity total ds the secretion / Pepsin ds the secretion: whole secretion", "procedure": "Male rats of the OFA strain, weighing 190-210 g, receive a solution of 20% glucose and […] sodium chloride as their only food for 3 days.\nUnder an ether anaesthetic, the pylorus is tied, while taking care not to include blood vessels in the binding. The tested product is administered intraperitoneally and the stomach is removed 2 hours after the binding. The gastric liquid is collected and the following parameters are measured:\nfree acidity (potentiometry)\ntotal acidity (potentiometry)\npeptic activity (hydrolysis of albumen of oxen and measurement of the tyrosine liberated).\nThe number of ulcers in the rumen are counted."}, "Acute toxicity": {"experiment": "Acute toxicity", "set-up": "species or system rat", "details": "in vivo"}, "[1]": {"tested_on": "ulcers caused by phenylbutazone", "experiment": "Protective activity as regards ulcers caused by phenylbutazone", "type": "in vivo, rat (male, OFA strain)", "details": "for Ulceration Index: maximum index 300", "procedure": "Male rats, of the OFA strain, weighing 160-180 g are placed on a diet of water 24 hours before the oral administration of the product studied (1 cm^3 /100 g). 30 minutes later, the rats receive 150 mg/kg phenylbutazone (1 cm^3 /100 g) orally.\nThe stomachs are removed 6 hours after the last treatment. Each stomach is classified according to the following scale:\nThe average of the results for a batch, multiplied by the percentage of rats having ulcers in this batch, gives an ulceration index whose maximum is 300.\nThe following Table I gives the ulceration indices and the protective dose 50 (PD50) which corresponds to the index 150."}, "[2]": {"details": "8 mg/kg intraperitoneally, p < 0.05"}, "[3]": {"details": "16 mg/kg intraperitoneally, p < 0.01"}, "[4]": {"details": "32 mg/kg intraperitoneally, p < 0.001"}, "[5]": {"details": "32 mg/kg intraperitoneally, p < 0.01"}}, "data": [{"compound": "CN1C(=O)CN=C(c2ccccc2)c2c(C3CC3)csc21", "note": "[Example 6, 6-Cyclopropyl-1,3-dihydro-1-methyl-5-phenyl-2-oxo-2H-thieno[2,3-e]diazepine]", "values": [{"measurement": "Pepsin", "setting": "Shay ulcers; 8 mg/kg intraperitoneally, ns", "result": 0.67, "unit": "mg/mL"}, {"measurement": "pH", "setting": "Shay ulcers; 8 mg/kg intraperitoneally, ns", "result": 1.19}, {"measurement": "Volume", "setting": "Shay ulcers; [2]", "result": 4.0, "unit": "cm^3"}, {"measurement": "Acidity free", "setting": "Shay ulcers; 8 mg/kg intraperitoneally, ns", "result": 91, "unit": "mEq/l"}, {"measurement": "Acidity total", "setting": "Shay ulcers; 8 mg/kg intraperitoneally, ns", "result": 109, "unit": "mEq/l"}, {"measurement": "Pepsin", "setting": "Shay ulcers; 16 mg/kg intraperitoneally, ns", "result": 0.67, "unit": "mg/mL"}, {"measurement": "pH", "setting": "Shay ulcers; 16 mg/kg intraperitoneally, ns", "result": 1.21}, {"measurement": "Volume", "setting": "Shay ulcers; [3]", "result": 2.7, "unit": "cm^3"}, {"measurement": "Acidity free", "setting": "Shay ulcers; 16 mg/kg intraperitoneally, ns", "result": 82, "unit": "mEq/l"}, {"measurement": "Acidity total", "setting": "Shay ulcers; 16 mg/kg intraperitoneally, ns", "result": 102, "unit": "mEq/l"}, {"measurement": "Pepsin", "setting": "Shay ulcers; 32 mg/kg intraperitoneally, ns", "result": 0.64, "unit": "mg/mL"}, {"measurement": "Volume", "setting": "Shay ulcers; [4]", "result": 1.7, "unit": "cm^3"}, {"measurement": "pH", "setting": "Shay ulcers; 32 mg/kg intraperitoneally, p < 0.05", "result": 1.67}, {"measurement": "Acidity free", "setting": "Shay ulcers; [5]", "result": 56.5, "unit": "mEq/l"}, {"measurement": "Acidity total", "setting": "Shay ulcers; [5]", "result": 80, "unit": "mEq/l"}, {"measurement": "Ulcers", "setting": "Shay ulcers; 8 mg/kg intraperitoneally", "result": 0}, {"measurement": "Ulcers", "setting": "Shay ulcers; 16 mg/kg intraperitoneally", "result": 0}, {"measurement": "Ulcers", "setting": "Shay ulcers; 32 mg/kg intraperitoneally", "result": 0}, {"measurement": "Acidity free ds the secretion", "setting": "Shay ulcers; 8 mg/kg intraperitoneally, ns", "result": 388, "unit": "mEq/l"}, {"measurement": "Acidity total ds the secretion", "setting": "Shay ulcers; 8 mg/kg intraperitoneally, ns", "result": 459, "unit": "mEq/l"}, {"measurement": "Pepsin ds the secretion", "setting": "Shay ulcers; [2]", "result": 2.66, "unit": "mg"}, {"measurement": "Acidity free ds the secretion", "setting": "Shay ulcers; [3]", "result": 275, "unit": "mEq/l"}, {"measurement": "Acidity total ds the secretion", "setting": "Shay ulcers; [3]", "result": 335, "unit": "mEq/l"}, {"measurement": "Pepsin ds the secretion", "setting": "Shay ulcers; [3]", "result": 1.83, "unit": "mg"}, {"measurement": "Acidity free ds the secretion", "setting": "Shay ulcers; [4]", "result": 145, "unit": "mEq/l"}, {"measurement": "Acidity total ds the secretion", "setting": "Shay ulcers; [4]", "result": 189, "unit": "mEq/l"}, {"measurement": "Pepsin ds the secretion", "setting": "Shay ulcers; [4]", "result": 1.14, "unit": "mg"}, {"measurement": "LD50", "setting": "Acute toxicity; po, orally in the rat, read-out: lethal dose LD50", "result": 915, "unit": "mg/kg"}, {"measurement": "selectivity ratio", "setting": "Acute toxicity; LD50 / PD50, oral, rat, read-out: ratio of toxicity/activity or therapeutic index", "result": "~23"}, {"measurement": "Ulceration Index", "setting": "[1]; 16 mg/kg orally", "result": 240}, {"measurement": "Ulceration Index", "setting": "[1]; 32 mg/kg orally", "result": 179}, {"measurement": "Ulceration Index", "setting": "[1]; 64 mg/kg orally", "result": 62}, {"measurement": "Ulceration Index", "setting": "[1]; 128 mg/kg orally", "result": 29}, {"measurement": "ED50", "setting": "[1]; Rattus norvegicus, po, orally, corresponds to ulceration index 150, read-out: PD50 (protective dose 50)", "result": 39, "unit": "mg/kg"}]}]}
